The test relates to CFBE41o- DeltaF508-CFTR YFP halide quenching kinetics. The test can be described thus: PubChem AID 651992. Particulars: at 40 µM (top of the series).

As for `COc1ccc(/C=C/C=C2C(=O)NC(=O)NC2=O)cc1`, the YFP fluorescence ratio, lower = correction is 1.

Values taken from PubChem BioAssay AID651992 (The Scripps Research Institute Molecular Screening Center, 2013).
